Tested on: human AML cell line MV4;11
Assay: Nude mouse xenograft model derived from human AML cell line MV4;11: tumor growth
Assay type: in vivo, mice
Conditions: treated for 19 days
Method: MV4;11 (CRL-9591) cells were obtained from ATCC. According to the Catalogue of Somatic Mutations in Cancer of the Wellcome Trust Sanger Institute, UK, this cell line carries a mutation in the FLT3 gene. Cells were cultured in T175 tissue culture flasks at 37° C. and 5% CO2. The medium used was IMDM supplemented with 10% fetal calf serum, 1% NEAA, 1% sodium pyruvate and 1% glutamine.
To establish subcutaneous tumors, MV4;11 cells were harvested and resuspended in PBS+5% FCS at 5×10^7 cells/ml. 50 μl of the cell suspension containing 2.5×10^6 cells was then injected subcutaneously into the right flank of the mice (1 site per mouse). Growth factor reduced BD Matrigel™ Matrix (BD Biosciences) was added to the cell suspension at a ratio of 1:1 before the injection. When tumors were well established and had reached a tumor volume of ˜120 mm^3, mice were randomly distributed between the treatment and the vehicle control groups 14 days after injecting the cells.
The solution was freshly made up each injection day.
The application solution was prepared on each injection day.
Animals were treated for 19 days.

SMILES | T/C (ratio of median tumor volume of treated vs. control tumors) (Example 1, Volasertib alone 10 mg/kg once weekly i.v.) [%] | T/C (ratio of median tumor volume of treated vs. control tumors) (Example 2, Volasertib alone 20 mg/kg once weekly i.v.) [%] | T/C (ratio of median tumor volume of treated vs. control tumors) (Example 1, Azacitidine alone 40 mg/kg once weekly i.v.) [%] | T/C (ratio of median tumor volume of treated vs. control tumors) (Example 2, Azacitidine alone 40 mg/kg once weekly i.v.) [%]
CC[C@@H]1C(=O)N(C)c2cnc(Nc3ccc(C(=O)N[C@H]4CC[C@H](N5CCN(CC6CC6)CC5)CC4)cc3OC)nc2N1C(C)C [Volasertib, N-[trans-4-[4-(cyclopropylmethyl)-1-piperazinyl]cyclohexyl]-4-[[(7R)-7-ethyl-5,6,7,8-tetrahydro-5-methyl-8-(1-methylethyl)-6-oxo-2-pteridinyl]amino]-3-methoxy-benzamide] | 79 | 39 | – | –
Nc1ncn([C@@H]2O[C@H](CO)[C@@H](O)[C@H]2O)c(=O)n1 [azacitidine, Azacitidine] | – | – | 78 | 78
